From US12441691B2 (Cytokinetics, Inc., priority 2020, dated 2025)

Each compound was assayed on rabbit skeletal myofibrils (fast skeletal myofibrils) (assay: Activation of fast skeletal myofibrils (PUMA assay, AC1.4)). Settings: calcium at pCa25, AC1.4 = concentration at which the compound increased the enzymatic activity.
Type: biochemical
Description: Preparation of fast skeletal myofibrils: Rabbit skeletal myofibrils were prepared based upon the method of Herrmann et al. (Biochem. 32(28):7255-7263(1993). Myofibrils were prepared from rabbit psoas muscle purchased from Pel-Freez Biologicals (Arkansas) within 2 days of ordering, stored on ice. Minced muscle was homogenized in 10 volumes of ice-cold “standard” buffer (50 mM Tris, pH 7.4, 0.1 M KOAc, 5 mM KCl, 2 mM dithiothreitol (DTT), 0.2 mM phenylmethylsulfonyl fluoride (PMSF), 10 μM leupeptin, 5 μM pepstatin, and 0.5 mM sodium azide) containing 5 mM ethylenediaminetetraacetic acid (EDTA) and 0.5% Triton X-100 using an Omni-Macro homogenizer. Myofibrils were recovered by low speed centrifugation (3000 rpm for 10 minutes) and washed 2 times in the Triton X-100 containing buffer to ensure removal of cellular membrane. Following the Triton washes, myofibrils were washed 3 times in “standard” buffer containing 2 mM magnesium acetate. A final wash in assay buffer (12 mM piperazine-1,4-bis(2-ethanesulfonic acid) (PIPES), pH 6.8, 60 mM KCl, 1 mM DTT) was performed and brought to 10% sucrose for flash freezing in liquid nitrogen and storage at −80° C.
Activation of Fast Skeletal Myofibrils: Fast fiber activators were identified by measuring the enzymatic activity of muscle myofibril preparations using the proprietary PUMA (trademark) (see, e.g., U.S. Pat. Nos. 6,410,254, 6,743,599, 7,202,051, and 7,378,254) assay system. Myofibril preparations consisted of rabbit skeletal muscle (approximately 90% fast fibers) that had been mechanically homogenized and washed with a detergent (Triton X-100) to remove cellular membranes. This preparation retained all of the sarcomeric components in a native conformation and the enzymatic activity was still regulated by calcium. Compounds were tested using a myofibril suspension and a level of calcium sufficient to increase enzymatic activity of the myofibrils to 25% of their maximal rate (termed pCa25). Enzymatic activity was tracked via a pyruvate kinase and lactate dehydrogenase-coupled enzyme system. This assay regenerates myosin-produced ADP into ATP by oxidizing NADH, producing an absorbance change at 340 nm. The buffering system was 12 mM PIPES, 2 mM MgCl2, 1 mM DTT at pH 6.8 (PM12 buffer). […] In Table 9, “Example Compound” refers to the compound labeled with the same number in Table 2.

| SMILES | AC1.4 [µM] |
| --- | --- |
| CC[C@H](C)[C@H]1C(=O)Nc2cc(F)ccc2CN1C(=O)NC [Compound 77, (S)-3-((S)-sec-butyl)-8-fluoro-N-methyl-2-oxo-1,2,3,5-tetrahydro-4H-benzo[e][1,4]diazepine-4-carboxamide] | 0.19 |
| CC[C@H](C)[C@H]1C(=O)Nc2c(F)cccc2CN1C(=O)NC [Compound 78, (S)-3-((S)-sec-butyl)-9-fluoro-N-methyl-2-oxo-1,2,3,5-tetrahydro-4H-benzo[e][1,4]diazepine-4-carboxamide] | 0.50 |
| CC[C@H](C)[C@H]1C(=O)Nc2c(F)cccc2CN1C(=O)N1CC(O)C1 [Compound 79, (S)-3-((S)-sec-butyl)-9-fluoro-4-(3-hydroxyazetidine-1-carbonyl)-1,3,4,5-tetrahydro-2H-benzo[e][1,4]diazepin-2-one] | 0.32 |
| CC[C@H](C)[C@H]1C(=O)Nc2cncc(F)c2CN1C(=O)c1cnn(C)c1 [Compound 80, (S)-3-((S)-sec-Butyl)-6-fluoro-4-(1-methyl-1H-pyrazole-4-carbonyl)-1,3,4,5-tetrahydro-2H-pyrido[3,4-e][1,4]diazepin-2-one] | 0.47 |
| CC[C@H](C)[C@H]1C(=O)Nc2cncc(C)c2CN1C(N)=O [Compound 81, (S)-3-((S)-sec-butyl)-6-methyl-2-oxo-1,2,3,5-tetrahydro-4H-pyrido[3,4-e][1,4]diazepine-4-carboxamide] | 3.80 |
| CC[C@H](C)[C@H]1C(=O)Nc2ccccc2CN1C(=O)c1cc2cnccc2[nH]1 [Compound 83, (S)-3-((S)-sec-butyl)-4-(1H-pyrrolo[3,2-c]pyridine-2-carbonyl)-1,3,4,5-tetrahydro-2H-benzo[e][1,4]diazepin-2-one] | 0.03 |
| CC[C@H](C)[C@H]1C(=O)Nc2ccccc2CN1C(=O)c1ccn(C)n1 [Compound 84, (S)-3-((S)-sec-butyl)-4-(1-methyl-1H-pyrazole-3-carbonyl)-1,3,4,5-tetrahydro-2H-benzo[e][1,4]diazepin-2-one] | 0.09 |
| CC[C@H](C)[C@H]1C(=O)Nc2ccccc2CN1C(=O)c1ccc(C(N)=O)[nH]1 [Compound 85, 5-((S)-3-((S)-sec-butyl)-2-oxo-2,3,4,5-tetrahydro-1H-benzo[e][1,4]diazepine-4-carbonyl)-1H-pyrrole-2-carboxamide] | 0.01 |
| CC[C@H](C)[C@H]1C(=O)Nc2ccccc2CN1C(=O)[C@H](C)O [Compound 86, (S)-3-((S)-sec-butyl)-4-((S)-2-hydroxypropanoyl)-1,3,4,5-tetrahydro-2H-benzo[e][1,4]diazepin-2-one] | 1.81 |
| CC[C@H](C)[C@H]1C(=O)Nc2ccccc2CN1/C(=N/C#N)NC [Compound 87, (S,E)-3-((S)-sec-butyl)-N′-cyano-N-methyl-2-oxo-1,2,3,5-tetrahydro-4H-benzo[e][1,4]diazepine-4-carboximidamide] | 0.07 |
| CC(C)[C@H]1C(=O)Nc2ccccc2CN1c1nccc(=O)[nH]1 [Compound 88, (S)-3-isopropyl-4-(6-oxo-1,6-dihydropyrimidin-2-yl)-1,3,4,5-tetrahydro-2H-benzo[e][1,4]diazepin-2-one] | 1.22 |
| CC[C@H](C)[C@H]1C(=O)Nc2ccccc2CN1S(=O)(=O)c1ccc(F)cc1 [Compound 89, (S)-3-((S)-sec-butyl)-4-((4-fluorophenyl)sulfonyl)-1,3,4,5-tetrahydro-2H-benzo[e][1,4]diazepin-2-one] | 0.18 |
| CC(=O)N1Cc2ccccc2NC(=O)[C@@H]1C1CCCCCC1 [Compound 91, (S)-4-acetyl-3-cycloheptyl-1,3,4,5-tetrahydro-2H-benzo[e][1,4]diazepin-2-one] | 0.08 |
| O=C1Nc2ccccc2CN(C(=O)CO)[C@H]1C1CCCCC1 [Compound 92, (S)-3-cyclohexyl-4-(2-hydroxyacetyl)-1,3,4,5-tetrahydro-2H-benzo[e][1,4]diazepin-2-one] | 0.40 |
| CC[C@H](C)[C@H]1C(=O)Nc2ccccc2CN1C(=O)Nc1ccc(=O)n(C)c1 [Compound 93, (S)-3-((S)-sec-butyl)-N-(1-methyl-6-oxo-1,6-dihydropyridin-3-yl)-2-oxo-1,2,3,5-tetrahydro-4H-benzo[e][1,4]diazepine-4-carboxamide] | 0.13 |
| CC[C@H](C)[C@H]1C(=O)Nc2ccccc2CN1C(=O)Nc1cccn(C)c1=O [Compound 94, (S)-3-((S)-sec-butyl)-N-(1-methyl-2-oxo-1,2-dihydropyridin-3-yl)-2-oxo-1,2,3,5-tetrahydro-4H-benzo[e][1,4]diazepine-4-carboxamide] | 0.15 |
| CC[C@H](C)[C@H]1C(=O)Nc2ccccc2CN1C(=O)c1c[nH]c(=O)[nH]1 [Compound 95, (S)-3-((S)-sec-butyl)-4-(2-oxo-2,3-dihydro-1H-imidazole-4-carbonyl)-1,3,4,5-tetrahydro-2H-benzo[e][1,4]diazepin-2-one] | 0.04 |
| CC[C@H](C)[C@H]1C(=O)Nc2ccccc2CN1C(=O)Nc1cccnc1 [Compound 99, (S)-3-((S)-sec-butyl)-2-oxo-N-(pyridin-3-yl)-1,2,3,5-tetrahydro-4H-benzo[e][1,4]diazepine-4-carboxamide] | 0.05 |
| CC[C@H](C)[C@H]1C(=O)Nc2ccccc2CN1C(=O)Nc1cn[nH]c1 [Compound 101, (S)-3-((S)-sec-butyl)-2-oxo-N-(1H-pyrzol-4-yl)-1,2,3,5-tetrahydro-4H-benzo[e][1,4]diazepine-4-carboxamide] | 0.05 |
| CC[C@H](C)[C@H]1C(=O)Nc2ccccc2CN1C(=O)N1CC(CO)C1 [Compound 102, (S)-3-((S)-sec-butyl)-4-(3-(hydroxymethyl)azetidine-1-carbonyl)-1,3,4,5-tetrahydro-2H-benzo[e][1,4]diazepin-2-one] | 0.37 |
| CC[C@H](C)[C@H]1C(=O)Nc2ccccc2CN1C(=O)N1CC[C@H]1C(N)=O [Compound 103, (S)-1-((S)-3-((S)-sec-butyl)-2-oxo-2,3,4,5-tetrahydro-1H-benzo[e][1,4]diazepine-4-carbonyl)azetidine-2-carboxamide] | 1.22 |
| CC[C@H](C)[C@H]1C(=O)Nc2ccccc2CN1C(=O)c1c[nH]cn1 [Compound 104, (S)-3-((S)-sec-butyl)-4-(1H-imidazole-4-carbonyl)-1,3,4,5-tetrahydro-2H-benzo[e][1,4]diazepin-2-one] | 0.08 |
| CC[C@H](C)[C@H]1C(=O)Nc2ccccc2CN1C(=O)c1ccn[nH]1 [Compound 105, (S)-3-((S)-sec-butyl)-4-(1H-pyrazole-5-carbonyl)-1,3,4,5-tetrahydro-2H-benzo[e][1,4]diazepin-2-one] | 0.10 |
| CC[C@H](C)[C@H]1C(=O)Nc2ccccc2CN1C(=O)[C@@H]1CCCO1 [Compound 106, (S)-3-((S)-sec-butyl)-4-((S)-tetrahydrofuran-2-carbonyl)-1,3,4,5-tetrahydro-2H-benzo[e][1,4]diazepin-2-one] | 0.89 |
| CC[C@H](C)[C@H]1C(=O)Nc2ccccc2CN1C(=O)[C@H]1CCCO1 [Compound 107, (S)-3-((S)-sec-butyl)-4-((R)-tetrahydrofuran-2-carbonyl)-1,3,4,5-tetrahydro-2H-benzo[e][1,4]diazepin-2-one] | 0.29 |
| CC[C@H](C)[C@H]1C(=O)Nc2ccccc2CN1C(=O)c1cnccn1 [Compound 108, (S)-3-((S)-sec-butyl)-4-(pyrazine-2-carbonyl)-1,3,4,5-tetrahydro-2H-benzo[e][1,4]diazepin-2-one] | 0.19 |
| CC[C@H](C)[C@H]1C(=O)Nc2ccccc2CN1C(=O)c1cnc(C(N)=O)cn1 [Compound 109, 5-((S)-3-((S)-sec-butyl)-2-oxo-2,3,4,5-tetrahydro-1H-benzo[e][1,4]diazepine-4-carbonyl)pyrazine-2-carboxamide] | 0.17 |
| CC[C@H](C)[C@H]1C(=O)Nc2ccccc2CN1C(=O)CS(N)(=O)=O [Compound 110, 2-((S)-3-((S)-sec-butyl)-2-oxo-1,2,3,5-tetrahydro-4H-benzo[e][1,4]diazepin-4-yl)-2-oxoethane-1-sulfonamide] | 1.36 |
| CC[C@H](C)[C@H]1C(=O)Nc2ccccc2CN1C(=O)CS(C)(=O)=O [Compound 111, (S)-3-((S)-sec-butyl)-4-(2-(methylsulfonyl)acetyl)-1,3,4,5-tetrahydro-2H-benzo[e][1,4]diazepin-2-one] | 4.90 |
| CC[C@H](C)[C@H]1C(=O)Nc2ccccc2CN1/C(N)=N/S(C)(=O)=O [Compound 112, (S,E)-3-((S)-sec-butyl)-N′-(methylsulfonyl)-2-oxo-1,2,3,5-tetrahydro-4H-benzo[e][1,4]diazepine-4-carboximidamide] | 0.81 |
